Data reported in US20140051729A1, “COMPOSITIONS AND METHODS FOR TREATING DEGENERATIVE MUSCLE CONDITIONS” (University of Washington, priority 2011, published 2014).

Columns and labels:
mdx mice = assay: EDL muscle myography in mdx mice; type: in vivo, mouse; conditions: THI-oxime IP twice-daily two weeks, 75 ug per day, at 120 Hz; vehicle 58 at 100 Hz
Protocol: The effect of THI administration on muscle function and recovery in mdx mice was analyzed. The mice were injected intraperitoneally with THI in PBS or vehicle alone (PBS) twice-daily for two weeks. Total amount of THI delivered per day was 75 ug. Extensor digitorum longus (EDL) muscles were excised from the mice and equilibrated in ringer's solution with 95% O2/5% CO2 for a minimum of 15 minutes prior to stimulation. Myography was conducted using a DMT 820S myograph and data was recorded using PowerLab 4/30 acquisition system with LabChart Pro software v7.3.1 (both from ADI instruments, Colorado Springs, Colo.). Stimulations were conducted with a Grass Instrument S88X system (Grass Technologies, West Warwick, R.I.). Muscles were stimulated to establish optimal fiber length (Lf) and voltage at which maximum tetanic force was measured at 120 Hz within a 450 ms duration.
Specific force was calculated as previously described in Gregorevic P. et al. (Gregorevic P. et al., Muscle Nerve. 2004 September; 30(3):295-304, PMID#15318340) by normalizing to whole muscle cross-sectional area (CSA). CSA is the quotient of […] muscle mass over the optimal muscle length (Lo) which is defined as the product of muscle fiber length (Lf) with the fiber length ratio (0.44 for EDL) and mammalian muscle density (1.06).
Muscle recovery was measured after muscle was fatigued with stimulation over 6 minutes. […] Recovery was determined by examining muscle force at 5, 10, and 15 minutes after stimulation. […] Therefore, the administration of THI improved muscle recovery and function in dystrophic mice.
The effect of THI-oxime administration on muscle function and recovery in mdx mice was analyzed. The mice were injected intraperitoneally with THI-oxime (n=3) or PBS vehicle alone (n=4) twice-daily for two weeks and then analyzed between 1-4 days following the final day of injection. Total amount of THI-oxime delivered per day was 75 ug. Prior to euthanasia, the animals were anesthetized with 0.5 mg/g weight avertin diluted in PBS. EDL muscles were excised from the mice and equilibrated in ringer's solution (120 mM NaCl, 4.7 mM KCl, 3.15 mM MgCl2, 1.3 mM NaH2PO4, 25 mM NaHCO3, 11 mM Glucose, 1.25 mM CaCl2, pH 7.2) with 95% O2/5% CO2 for a minimum of 15 minutes prior to stimulation. All functional experiments were carried out with buffer solutions at 25° C. under constant oxygenation. Myography was conducted using a DMT 820S myograph and data was recorded using PowerLab 4/30 acquisition system with LabChart Pro software v7.3.1 (both from ADI instruments, Colorado Springs, Colo.). […] Muscles were stimulated to establish optimal fiber length (Lf) and voltage at which maximum tetanic force was measured at 120 Hz within a 450 ms duration. […]

[1] = tested on: dystrophic flies (w; +/+; Dys^det1/Dys^det1); assay: Myofibril analysis of muscle wasting in dystrophic flies fed S1P promoting agents; type: in vivo, Drosophila; conditions: 217 μM in feed, three feeding cycles
Protocol: The effect of THI, a derivative of THI ((E)-1-(4-((1R,2S,3R)-1,2,3,4-tetrahydroxybutyl)-1H-imidazol-2-yl)-ethanone oxime) (“THI-oxime”), and a sphingosine analog (FTY720) on muscle wasting in dystrophic Drosopila flies was observed. Before feeding, 4 day old dystrophic flies (genotype: w; +/+; Dys^det1/Dys^det1) were placed in empty vials and starved for 6 hours. The flies were then provided access to one of a solution of 0.05 mg/mL (217 μM) 2-Acetyl-4(5)-tetrahydroxybutyl Imidazole (THI), or 217 μM FTY720, or 217 μM THI-oxime, in 5% light corn syrup in water for 16-18 hrs. After feeding, the flies were placed in new yeasted vials for 6-7 hrs. Flies were then transferred to empty vials with access to a 217 μM solution of THI, FTY720 or THI-oxime in a 5% light corn syrup in water for 16-18 hrs. This feeding cycle was repeated for a third time. After feeding for three cycles, the flies were placed in new yeasted vials. The 7-day old flies that had been administered the THI-oxime were analyzed immediately after the last feeding. The flies that has been administered THI and FTY720 were analyzed as 10-day old flies, three days after the last feeding with THI and FTY720.
Myofibril immunochemistry analysis was performed as disclosed herein. For each treatment group, 5 flies were analyzed, and 3 muscles per fly and 2 myofibrils per muscle were analyzed. Two tailed Student's t test was used to evaluate significance.
Flies were dipped in 95% EtOH and then dissected in 1×PBS (pH 7.4). Heads and abdomens were removed, and the thoraxes opened. Samples were stained using a modified ovary staining protocol 3. Samples were then fixed in 5% paraformaldehyde (Electron Microscopy Sciences) for 1 hour, rinsed in PBT (PBS/0.2% Triton X-100 v/v) 4 times, and then blocked for 1 hour in PBTB (PBT, 0.4% BSA w/v, 5% Normal Goat Serum v/v) at room temperature. […] For each genotype, 4-5 flies were analyzed, and 6-7 muscles per fly were analyzed.

mdx:myf5^nlacz/+ mice = assay: Intramuscular S1P after CTX injury in mdx:Myf5nlacZ/+ mice (x-gal, myogenin, eMyHC staining); type: in vivo, mouse
Protocol: S1P is involved in muscle satellite cell turnover, myoblast differentiation, and muscle regeneration in non-diseased mice. […] The effects of S1P treatment were examined following CTX induced acute injury in dystrophic muscles. To identify myogenic cells, mdx:myf5^nlacz/+ mice were used carrying the nuclear lacZ reporter driven by the endogenous Myf5 gene. CTX was applied to both TA muscles (n=3 mice, 3 month-old mdx:myf5^nlacz/+ males), then S1P was injected intramuscularly into left TAs and a vehicle control into right TAs daily for the first three days following injury. TAs were harvested on day 4 post injury for analysis of β-galactosidase positive (Myf5+) nuclei.
Right and left TAs of three, 3 month old male mdx4cv:Myf5nlacZ/+ were injected with […] cardiotoxin (Calbiochem) in PBS from Naja nigrcollis. For the dysferlinopathy study, right and left TAs of 9 month old male and female A/J mice (JAX Mice, Bar Harbor, Me.) were injected with […] cardiotoxin (Calbiochem) in PBS from Naja nigrcollis. S1P (Enzo; Calbiochem) preparation was done according to manufacturer's instructions. Briefly, S1P was dissolved in methanol (0.5 mg/ml) and aliquoted, then the solvent was evaporated with a stream of nitrogen to deposit a thin film on the inside of the tube. Aliquots were dissolved with 4 mg/ml BSA (fatty acid free) to make 500 uM stocks. Directly following cardiotoxin injection, 500 uM S1P in PBS with 4 mg/ml BSA was injected in left TAs (20 ul), daily until day 3 post-injury at which time animals were euthanized and muscles were harvested for freezing. Right TAs were injected with an equal volume of PBS with 4 mg/ml BSA as vehicle controls. In a separate experiment TAs of four 2.5 month-old female mdx4cv were injected with S1P or vehicle under the same conditions stated above, in the absence of injury.
All mouse muscles were frozen directly in OCT with liquid nitrogen cooled in isopentane and sections of 8 μm thickness were obtained. Tissue for x-gal staining, was fixed for 10 min with 2% formaldehyde/0.2% glutaraldehyde and incubated overnight at 37° C. with staining buffer (PBS with 1 mg/ml x-gal, 5 mM potassium ferricyanide, 5 mM potassium ferrocyanide, and 2 mM […] (all from Fisher). Oil Red-O and Picrosirius red staining were done following established protocols. For eMyHC staining, tissue was first fixed with 2% formaldehyde for 5 min, treated with streptavidin/avidin blocking kit (Vector labs), and blocked with IgG block from M.O.M kit (Vector Labs) for 5 hrs at 4° C. Following blockade, concentrated mouse anti-eMyHC (clone F1.652 received at 357 μg/ml IgG) obtained from the developmental studies hybridoma bank (DHSB, University of Iowa) was administered at 1:400 dilution, overnight at 4° C. The remainder of the staining was done following mouse-on-mouse (M.O.M) kit staining instructions. For laminin staining tissue was also fixed with 2% formaldehyde for 5 min, and then treated with polyclonal rabbit anti-laminin (Sigma) for 1 hr at a 1:400 dilution in PBS+1% BSA. Following washes, Alexa Fluor 488 conjugated goat anti-rabbit IgG (Invitrogen) was administered at 1:800 dilution for 1 hr. Controls omitting the primary antibody were included with all staining. Staining quantifications were all done using ImageJ v1.40 (Wayne Rasband, NIH) cell counter plugin (Kurt De Vos, University of Sheffield). Calculations, statistics, and graphs were generated with Microsoft Excel. […]

Akt/mTOR signaling = assay: Western blot of uninjured TA muscle of mdx mice after intramuscular S1P; type: in vivo, mouse; conditions: three days of daily S1P injections, vs vehicle TA
Protocol: To discern if the S1P dependent increase in mdx muscle fiber size was due to hypertrophy, the activation of Akt/mTOR signaling was examined. S1P induced hypertrophy has been described in cultured cardiomyocytes, which was accompanied by activation of Akt and S6 kinase. In turn, Akt and mTOR signaling via S6 kinase, an activator of ribosomal S6 implicated in protein synthesis, has been described as sufficient to induce skeletal muscle hypertrophy. Therefore it was determined if the increase in muscle fibers by S1P was mediated by Akt/mTOR signaling. Since THI induces a S1P increase throughout the body, S1P was administered directly into muscle in mdx mice and levels of activated/phosphorylated Akt, mTOR, and S6 were measured. S1P was injected directly into uninjured TA muscle to measure potential effects on these pathways in the absence of injury. As before, S1P was injected into left TAs and vehicle into right TAs of the same animals (FIG. 6a). […]
Tissue for western blot analysis was snap frozen in liquid nitrogen and subsequently homogenized. […] Protein extracts were separated using BioRad Tris-HCl ready gels 4-20% linear gradient and transferred to polyvinylidene difluoride (PVDF) membranes with a wet transfer system (BioRad). […] The signals were detected using an enhanced chemiluminescence kit (Millipore) and CL-XPosure Films (Thermo Scientific) were analyzed using ImageJ.

A/J mice = assay: S1P in dysferlinopathy model after CTX injury (picrosirius red fibrosis); type: in vivo, mouse; conditions: A/J mice 9 month old, S1P intramuscular daily three days, 6 days post injury, vs vehicle
Protocol: The A/J mouse strain (JAX Mice, Bar Habor, Me.) lacks dysferlin and is a model for dysferlinopathy. The effects of S1P treatment of A/J mice was examined following CTX induced acute injury. CTX was applied to both TA muscles (2× male, 2× female, 9 month old), then S1P was injected intramuscularly into left TAs and a vehicle control (saline) in right TAs daily for the first three days following CTX injury. The TAs were harvested and examined for muscle fibrosis (picrosirius red staining) 6 days post injury.
Right and left TAs of three, 3 month old male mdx4cv:Myf5nlacZ/+ were injected with […] cardiotoxin (Calbiochem) in PBS from Naja nigrcollis. For the dysferlinopathy study, right and left TAs of 9 month old male and female A/J mice (JAX Mice, Bar Harbor, Me.) were injected with […] cardiotoxin (Calbiochem) in PBS from Naja nigrcollis. S1P (Enzo; Calbiochem) preparation was done according to manufacturer's instructions. Briefly, S1P was dissolved in methanol (0.5 mg/ml) and aliquoted, then the solvent was evaporated with a stream of nitrogen to deposit a thin film on the inside of the tube. […]
All mouse muscles were frozen directly in OCT with liquid nitrogen cooled in isopentane and sections of 8 μm thickness were obtained. […] Staining quantifications were all done using ImageJ v1.40 (Wayne Rasband, NIH) cell counter plugin (Kurt De Vos, University of Sheffield). […]

Q: `C/C(=N\O)c1nc([C@@H](O)[C@H](O)[C@H](O)CO)c[nH]1` [THI-oxime, (E)-1-(4-((1R,2S,3R)-1,2,3,4-tetrahydroxybutyl)-1H-imidazol-2-yl)-ethanone oxime] was tested. Which “maximum specific force of EDL muscle” value (mdx mice) did it give?
A: 73 KN/m^2

Q: And the wild-type myofibrils ([1]; 7-day old flies, negative control 39.05%)?
A: 67.62%

Q: Which results are given for `CCCCCCCCCCCCC/C=C/[C@@H](O)[C@@H](N)COP(=O)(O)O` [S1P, Sphingosine-1-phosphate]?
A: numbers of Myf5+ nuclei in areas with severe CTX damage (mdx:myf5^nlacz/+ mice; S1P intramuscular daily for three days, TAs harvested day 4, vs vehicle TA): four-fold increase; Myf5+ cells for the entire cross-sectional area of treated TA (mdx:myf5^nlacz/+ mice; S1P intramuscular daily for three days, day 4, vs vehicle TA): gross increase; increase in the number of eMyHC+ fibers (mdx:myf5^nlacz/+ mice; S1P treated TAs vs vehicle): 3.6 fold; size of regenerating myofibers (minimum diameter of largest eMyHC+ fibers) (mdx:myf5^nlacz/+ mice; S1P treated TAs vs vehicle): significantly greater; number of myogenin positive nuclei (mdx:myf5^nlacz/+ mice; S1P treated vs vehicle treated CTX injured TAs): slightly higher but not significantly different; levels of S6 and phosphorylated S6 (Akt/mTOR signaling): significantly increased; levels of phosphorylated Akt and mTOR (Akt/mTOR signaling): not significantly higher; average percentage of fibrosis in CTX injured TA muscles (A/J mice): significantly decreased

Q: How did the wild-type myofibrils ([1]; 10-day old flies, three days after last feeding) turn out when `CCCCCCCCc1ccc(CCC(N)(CO)CO)cc1` [FTY720, 2-amino-2-[2-(4-octylphenyl)ethyl]propane-1,3-diol] was run?
A: 73.83%
